# From patent US20260224674A1, “COMPOSITIONS COMPRISING PEDF-DERIVED SHORT PEPTIDES AND MESENCHYMAL STEM CELLS FOR BONE/CARTILAGE REGENERATION” (BRIM Biotechnology, Inc., priority 2022, published 2026)
# Key:
# [1] = tested on: ACLT surgery induced osteoarthritis mouse model; assay: OARSI histologic scoring of cartilage degradation in ACLT surgery induced OA murine model; assay type: in vivo
# Method: (§1) The OA murine model is induced by anterior cruciate ligament (ACLT) surgery. In brief, a medial arthrotomy was performed. With the knee in full flexion, the patella was dislocated laterally, the anterior cruciate ligament (ACLT) was transected, and then the wounds were closed.
# (§2) The ACLT surgery was performed on the unilateral knees of each mouse for 2 months prior to the treatments. Twenty mice were randomly divided into 5 groups: (i) non-treated group [n=3]; (ii) vehicle-treated group [n=4]; (iii) PDSP-treated group [n=5], (iv) vehicle combined with IPFP-MSC-treated group [n=3]; (v) PDSP combined with IPFP-MSC-treated group [n=5] in ACLT surgery induced OA groups, while the knees without surgery serve as sham-operated group [n=4]. At eight weeks after ACLT surgery (first injection), the knee joints of the non-treated, vehicle-treated, or PDSP-treated groups were intra-articular injected, respectively, with 0.01 mL PBS, vehicle, or PDSP, while those of the vehicle or PDSP combined with IPFP-MSC groups were injected with hMSCs in 0.01 mL. MSCs were intra-articular injected at the first treatment only (i.e., at 8 weeks). For the second treatments (two weeks after MSC injections or 10 weeks after ACLT surgery), those of the vehicle or PDSP combined with IPFP-MSC injection groups were injected with 0.01 mL vehicle or PDSP. […]
# [2] = tested on: ACLT surgery induced osteoarthritis mouse model; assay: Safranin O and H&E histological staining of the murine knee joints; assay type: in vivo; conditions: ACLT surgery induced OA mice; compared with non-treated OA groups
# Method: as §1, §2
# type II collagen = assay: Type II collagen immunohistochemistry (IHC) staining of the murine knee joint; assay type: in vivo, mouse; conditions: ACLT surgery induced OA mice; compared with non-treated and vehicle-treated OA groups
# Method: as §1, §2
# type X collagen = assay: Type X collagen immunohistochemistry (IHC) staining of the murine knee joint; assay type: in vivo, mouse; conditions: ACLT surgery induced OA mice
# Method: as §1, §2
# [3] = tested on: human bone marrow-derived mesenchymal stem cells (hBM-MSC); assay: hBM-MSC spheroid chondrogenesis, Alcian Blue staining at day 14; assay type: cell-based; conditions: PDSP 10 μM, chondrogenic differentiation medium with TGFβ1 10 ng/ml
# Method: To shed light on possible mechanisms for the effects of PDSP chondrogenesis, further experiments were conducted to assess the effects of PDSP on MSC. The MSC used in this study are human bone marrow-derived mesenchymal stem cells (hBM-MSC) from Gibco (StemPro™ BM Mesenchymal Stem Cells). […] Human bone marrow MSC spheroids were cultured with chondrogenic differentiation medium, with or without TGFβ1 and with or without PDSP. The media were changed every 3 days. On day 14, the cartilage spheroids were collected for evaluation. The various media compositions are as follows (the base medium is a high-glucose DMEM supplemented with 1×10^−7M dexamethasone, 1×10^−3M sodium pyruvate, 1.7×10^−4M L-ascorbic acid-2-phosphate, 3.5×10^−4M proline, 5 mL ITS+Premix in 500 mL medium, and 1% antibiotic): […]
sequence,measurement,setting,value
"SLGAEQRTESIIHRALYYDLISSPDIHGT (listed as Homo sapiens) [PDSP, PEDF-derived short peptide]",OARSI scores,"[1]; ACLT surgery induced OA groups, text values with their spread (SEM per Table 2)",3.47±0.19
same,"The histologic scoring of murine OA (OARSI score), Average","[1]; ACLT surgery induced osteoarthritis mice, intra-articular injection at 8 and 10 weeks after surgery, average over animals",3.47
same,Cartilage loss and surface irregularity in the medial and lateral compartments (safranin O and H&E staining),[2],less cartilage loss and surface irregularity
same,Expression of type II collagen (IHC),type II collagen,increased
same,Type X collagen signals (IHC),type X collagen,decreased
same,Cartilage spheroids size (total area),[3],increase the cartilage spheroids size
same,Chondrogenesis (Alcian blue positive area; differentiation of hBM-MSC into chondrocytes),[3],promote chondrogenesis
